How the values were obtained:
[1] = molecular target: T1, Tyrosine-protein phosphatase non-receptor type 1 (Homo sapiens, UniProt P18031); test: Enzyme Assays
T1 sequence (P18031 whole entry): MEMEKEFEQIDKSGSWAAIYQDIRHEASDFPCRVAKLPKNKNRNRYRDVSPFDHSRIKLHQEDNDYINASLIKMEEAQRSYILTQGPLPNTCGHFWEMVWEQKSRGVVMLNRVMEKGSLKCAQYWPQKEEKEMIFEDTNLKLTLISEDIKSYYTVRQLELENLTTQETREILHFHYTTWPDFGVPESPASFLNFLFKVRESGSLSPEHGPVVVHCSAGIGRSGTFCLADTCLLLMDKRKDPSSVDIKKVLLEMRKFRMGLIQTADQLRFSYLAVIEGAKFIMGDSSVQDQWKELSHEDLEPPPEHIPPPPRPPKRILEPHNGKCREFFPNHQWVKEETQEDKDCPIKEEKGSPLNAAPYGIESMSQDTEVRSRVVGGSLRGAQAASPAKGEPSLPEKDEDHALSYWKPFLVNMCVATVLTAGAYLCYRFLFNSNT
Description: (§1) The in vitro enzyme inhibitory activity was evaluated by using the pNPP assay. Para-nitrophenylphosphate (pNPP) and test compounds were added to assay buffer, and reactions were initiated by the addition of PTP1B or TCPTP (10-100 nM).

[2] = molecular target: T2, Tyrosine-protein phosphatase non-receptor type 2 (Homo sapiens, UniProt P17706); test: Enzyme Assays
T2 sequence (P17706 whole entry): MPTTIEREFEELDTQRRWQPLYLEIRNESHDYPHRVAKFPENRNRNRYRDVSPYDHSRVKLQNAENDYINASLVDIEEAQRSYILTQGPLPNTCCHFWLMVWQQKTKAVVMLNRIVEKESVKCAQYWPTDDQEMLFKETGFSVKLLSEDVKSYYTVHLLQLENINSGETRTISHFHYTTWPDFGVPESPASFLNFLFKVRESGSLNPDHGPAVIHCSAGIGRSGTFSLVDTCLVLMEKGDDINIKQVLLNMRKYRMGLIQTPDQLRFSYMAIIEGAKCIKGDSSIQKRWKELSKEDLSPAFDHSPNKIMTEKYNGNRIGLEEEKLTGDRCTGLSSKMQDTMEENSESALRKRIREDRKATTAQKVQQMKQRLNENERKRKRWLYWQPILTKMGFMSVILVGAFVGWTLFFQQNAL
Description: as §1

SMILES	IC50 [1]	IC50 [2]
O=C(c1ccccc1)C(Cc1ccc2cc(Br)c(C(F)(F)P(=O)(O)O)cc2c1)(Cc1ccc2cc(Br)c(C(F)(F)P(=O)(O)O)cc2c1)n1nnc2ccccc21	5 nM	580 nM
O=C(c1ccccc1)C(Cc1ccc(C(F)(F)P(=O)(O)O)c(Br)c1)(Cc1ccc2cc(Br)c(C(F)(F)P(=O)(O)O)cc2n1)n1nnc2ccccc21 (stereo not drawn) [({2-[2-(1H-1,2,3-benzotriazol-1-yl)-2-({3-bromo-4-[difluoro(phosphono)methyl]phenyl}methyl)-3-oxo-3-phenylpropyl]-6-bromoquinolin-7-yl}difluoromethyl)phosphonic acid (10l)]	21 nM	
O=C(c1ccccc1)C(Cc1ccc2cc(Br)c(C(F)(F)P(=O)(O)O)cc2n1)(Cc1ccc2cc(Br)c(C(F)(F)P(=O)(O)O)cc2n1)n1nnc2ccccc21 [({2-[2-(1H-1,2,3-benzotriazol-1-yl)-2-({6-bromo-7-[difluoro(phosphono)methyl]quinolin-2-yl}methyl)-3-oxo-3-phenylpropyl]-6-bromoquinolin-7-yl}difluoromethyl)phosphonic acid (10n)]	5 nM	101 nM
N[S+]([O-])C(F)(F)c1ccc(CC(Cc2ccc3cc(Br)c(C(F)(F)P(=O)(O)O)cc3n2)(C(=O)c2ccccc2)n2nnc3ccccc32)cc1Br (stereo not drawn) [({2-[2-({4-[(aminosulfinyl)difluoromethyl]-3-bromophenyl}methyl)-2-(1H-1,2,3-benzotriazol-1-yl)-3-oxo-3-phenylpropyl]-6-bromoquinolin-7-yl}difluoromethyl)phosphonic acid (10m)]	22 nM	
N[S+]([O-])C(F)(F)c1cc2nc(CC(Cc3ccc4cc(Br)c(C(F)(F)P(=O)(O)O)cc4n3)(C(=O)c3ccccc3)n3nnc4ccccc43)ccc2cc1Br (stereo not drawn) [({2-[2-({7-[(aminosulfinyl)difluoromethyl]-6-bromoquinolin-2-yl}methyl)-2-(1H-1,2,3-benzotriazol-1-yl)-3-oxo-3-phenylpropyl]-6-bromoquinolin-7-yl}difluoromethyl)phosphonic acid (10o)]	4 nM	82 nM
O=C(c1ccccc1)C(Cc1ccc(C(F)(F)P(=O)(O)O)c(Br)c1)(Cc1ccc2cc(Br)c(C(F)(F)P(=O)(O)O)cc2c1)n1nnc2ccccc21 (stereo not drawn) [({7-[2-(1H-1,2,3-benzotriazol-1-yl)-2-({3-bromo-4-[difluoro(phosphono)methyl]phenyl}methyl)-3-oxo-3-phenylpropyl]-3-bromonaphthalen-2-yl}difluoromethyl)phosphonic acid (10b)]	20 nM	201 nM
O=C(c1ccccc1)C(Cc1ccc(C(F)(F)P(=O)(O)O)cc1)(Cc1ccc2cc(Br)c(C(F)(F)P(=O)(O)O)cc2c1)n1nnc2ccccc21 (stereo not drawn) [({7-[2-(1H-1,2,3-benzotriazol-1-yl)-2-({4-[difluoro(phosphono)methyl]phenyl}methyl)-3-oxo-3-phenylpropyl]-3-bromonaphthalen-2-yl}difluoromethyl)phosphonic acid (10a)]	46 nM	
O=C(c1ccccc1)C(Cc1ccc(Br)c(C(F)(F)P(=O)(O)O)c1)(Cc1ccc2cc(Br)c(C(F)(F)P(=O)(O)O)cc2c1)n1nnc2ccccc21 (stereo not drawn) [({7-[2-(1H-1,2,3-benzotriazol-1-yl)-2-({4-bromo-3-[difluoro(phosphono)methyl]phenyl}methyl)-3-oxo-3-phenylpropyl]-3-bromonaphthalen-2-yl}difluoromethyl)phosphonic acid (10c)]	404 nM	
O=C(c1ccccc1)C(Cc1ccc2cc(Br)c(C(F)(F)P(=O)(O)O)cc2c1)(Cc1ccc2cc(Br)c(C(F)(F)P(=O)(O)O)cc2n1)n1nnc2ccccc21 (stereo not drawn) [({7-[2-(1H-1,2,3-benzotriazol-1-yl)-2-({6-bromo-7-[difluoro(phosphono)methyl]quinolin-2-yl}methyl)-3-oxo-3-phenylpropyl]-3-bromonaphthalen-2-yl}difluoromethyl)phosphonic acid (10i)]	3 nM	90 nM
O=C1CC(c2ccc(CC(Cc3ccc4cc(Br)c(C(F)(F)P(=O)(O)O)cc4c3)(C(=O)c3ccccc3)n3nnc4ccccc43)cc2F)S(=O)(=O)N1 (stereo not drawn) [({7-[2-(1H-1,2,3-benzotriazol-1-yl)-2-{[3-fluoro-4-(1,1,3-trioxo-1λ⁶,2-thiazolidin-5-yl)phenyl]methyl}-3-oxo-3-phenylpropyl]-3-bromonaphthalen-2-yl}difluoromethyl)phosphonic acid (10g)]	919 nM	
Cc1cc(CC(Cc2ccc3cc(Br)c(C(F)(F)P(=O)(O)O)cc3c2)(C(=O)c2ccccc2)n2nnc3ccccc32)ccc1C1CC(=O)NS1(=O)=O (stereo not drawn) [({7-[2-(1H-1,2,3-benzotriazol-1-yl)-2-{[3-methyl-4-(1,1,3-trioxo-1λ⁶,2-thiazolidin-5-yl)phenyl]methyl}-3-oxo-3-phenylpropyl]-3-bromonaphthalen-2-yl}difluoromethyl)phosphonic acid (10f)]	924 nM	
O=C1CC(c2ccc(CC(Cc3ccc4cc(Br)c(C(F)(F)P(=O)(O)O)cc4c3)(C(=O)c3ccccc3)n3nnc4ccccc43)cc2)S(=O)(=O)N1 (stereo not drawn) [({7-[2-(1H-1,2,3-benzotriazol-1-yl)-3-oxo-3-phenyl-2-{[4-(1,1,3-trioxo-1λ⁶,2-thiazolidin-5-yl)phenyl]methyl}propyl]-3-bromonaphthalen-2-yl}difluoromethyl)phosphonic acid (10e)]	930 nM	
N[S+]([O-])C(F)(F)c1ccc(CC(Cc2ccc3cc(Br)c(C(F)(F)P(=O)(O)O)cc3c2)(C(=O)c2ccccc2)n2nnc3ccccc32)cc1Br (stereo not drawn) [({7-[2-({4-[(aminosulfinyl)difluoromethyl]-3-bromophenyl}methyl)-2-(1H-1,2,3-benzotriazol-1-yl)-3-oxo-3-phenylpropyl]-3-bromonaphthalen-2-yl}difluoromethyl)phosphonic acid (10d)]	19 nM	192 nM
N[S+]([O-])C(F)(F)c1cc2cc(CC(Cc3ccc4cc(Br)c(C(F)(F)P(=O)(O)O)cc4c3)(C(=O)c3ccccc3)n3nnc4ccccc43)ccc2cc1Br (stereo not drawn) [({7-[2-({7-[(aminosulfinyl)difluoromethyl]-6-bromonaphthalen-2-yl}methyl)-2-(1H-1,2,3-benzotriazol-1-yl)-3-oxo-3-phenylpropyl]-3-bromonaphthalen-2-yl}difluoromethyl)phosphonic acid (10j)]	4 nM	480 nM
N[S+]([O-])C(F)(F)c1cc2nc(CC(Cc3ccc4cc(Br)c(C(F)(F)P(=O)(O)O)cc4c3)(C(=O)c3ccccc3)n3nnc4ccccc43)ccc2cc1Br (stereo not drawn) [({7-[2-({7-[(aminosulfinyl)difluoromethyl]-6-bromoquinolin-2-yl}methyl)-2-(1H-1,2,3-benzotriazol-1-yl)-3-oxo-3-phenylpropyl]-3-bromonaphthalen-2-yl}difluoromethyl)phosphonic acid (10k)]	6 nM	185 nM

From BindingDB's records for doi:10.1002/cmdc.201100077 (Zydus Research Centre, 2011)
